How the values were obtained:
mouse skin = tested on: mouse skin; design: method as in Buening et al. [1979]; LaVoie et al. [1981]; details: mouse skin painting; ref Buening et al. [1979]; LaVoie et al. [1981]; cited from earlier work
S. typhimurium TA98 = details: ref LaVoie et al. [1983]; cited from earlier work
[1] = tested on: Salmonella typhimurium TA98; assay: Reverse mutation assay (Ames test), TA98; details: for Increase in the number of revertants compared to the concurrent solvent control: TA98, presence of 5% S9-mix, 10–100 µg; for Mutagenicity (conclusion): TA98, positive if more than threefold over control; for His + revertant colonies TA98 without S9-mix: mean ± SD of 3 plates
Procedure: Six concentrations of each compound were tested in triplicate in the absence and presence of 5% (v/v) S9-mix prepared from the livers of Aroclor 1254 treated Sprague–Dawley rats. The S9-mix contained 4 mM NADP, 5.8 mM glucose-6-phosphate, 0.1 M sodium phosphate pH 7.4, 8 mM MgCl2, 33 mM KCl and 5% S9 homogenate. Fresh bacterial cultures were prepared overnight to reach 10^9 cells/ml. The following solutions were pre-incubated in a rotating incubator at 70 rpm and 37 °C, and contained either 0.5 ml S9-mix (in case of S9 presence) or 0.5 ml 0.1 M potassium phosphate pH 7.4 (in case of S9 absence), 0.1 ml of a fresh bacterial culture (10^9 cells/ml) of TA98 or TA100, […] Top agar was melted and heated to 45 °C. After preincubation, the substrate solutions were added to 3 ml of the molten top agar and mixed by vortexing and the top agar mixture was poured onto a minimal glucose agar plate. After solidification of the top agar, the plates were incubated at 37 °C for 48 h. The number of revertant colonies per plate was automatically counted with the Instem Sorcerer Colony Counter (Staffordshire, UK). In the absence of S9-mix, 2-nitrofluorene (NF) and methylmethanesulfonate (MMS) were tested as positive controls for incubations with TA98 and TA100, respectively. In the presence of S9-mix, 2-aminoanthracene (2AA) was tested as a positive control in both TA98 and TA100. DMSO was tested as a solvent control in both tester strains.

[2] = tested on: rat liver microsomes (RLM); assay: Rat liver microsomal incubation, metabolite formation quantified by UPLC; details: RLM
Procedure: (§1) The incubation mixtures were prepared and incubated in glass vials to avoid plastic binding of the substrates. The glass vials were capped to prevent substrate loss due to volatility. After preincubation of the incubation mixture at 37 °C for 1 min, the enzymatic reaction was initiated by adding microsomes to the incubation mixture which was subsequently incubated at 37 °C for 20 min. The reaction was terminated by adding 100 µl ice-cold acetonitrile followed by vortexing. After 5 min centrifugation at 5000 rpm (4000 × g), 4 °C, the supernatant was collected for ultraperformance liquid chromatography (UPLC) analysis. […] Therefore, a diisopropylether (DIPE) extraction of the metabolites was performed after the reaction was stopped by the addition of 20 µl 10% HClO4. To this end, the incubation mixture (total volume of 220 µl) was extracted three times with 1 ml DIPE. Each time, the upper organic layer was collected and the DIPE was subsequently evaporated from the combined organic fractions with a gentle stream of nitrogen. The residues were dissolved in 100 µl methanol and analyzed by UPLC.
(§2) The metabolites formed were analyzed and quantified using an Acquity UPLC system equipped with a photodiode array (PDA) detector (Waters, Milford, MA). The metabolites and their parent compound were separated on a reverse phase Acquity UPLC® BEH C18 column ([…], 1.7 µm, Waters, Milford, MA) and detected at wavelengths ranging from 190 to 400 nm. Eluent A was nano-pure water containing 0.1% trifluoroacetic acid (v/v), and eluent B was acetonitrile containing 0.1% trifluoroacetic acid (v/v). The gradient elution started from 90% A and 10% B applied from 0.0 min to 0.5 min, which was changed to 0% A and 100% B from 0.5 to 15.5 min and then kept at 0% A and 100% B from 15.5 min to 18.5 min, changed back to 90% A and 10% B from 18.5 to 18.6 min and then maintained at the starting conditions from 18.6 min until 22 min. The total run time was 22 min using a flow rate of 0.6 ml/min. The temperature of the column was set at 40 °C and that of the autosampler at 10 °C during the UPLC analysis. The injection volume was 3.5 µl. Metabolites were quantified using their peak area at the wavelength specified in Table 1, using calibration curves of available reference compounds. Metabolites were identified by comparing their retention time (RT) and UV spectrum to those of reference chemicals on UPLC. When reference chemicals were not available, metabolite identification by gas chromatography-triple quadrupole mass spectrometry (GC–MS/MS) was performed. The minor metabolites were identified by elution time and mass spectra both on UPLC and GC–MS/MS, and by comparison with available elution and spectral information from the literature.
(§3) The metabolite concentrations in the microsomal incubation mixtures as quantified by UPLC were used to calculate the rate of the enzymatic conversions in pmol/min/mg microsomal protein. The kinetic parameters KM and Vmax were obtained using a nonlinear regression curve fit applying the Michaelis Menten equation in GraphPad Prism 5 (San Diego, USA). To compare the catalytic efficiency of formation of the different metabolites the intrinsic clearance (Clint) was calculated as Vmax divided by KM.

S. typhimurium TA100 = details: ref LaVoie et al. [1983]; cited from earlier work
[3] = tested on: human liver microsomes (HLM); assay: Human liver microsomal incubation, metabolite formation quantified by UPLC; details: HLM
Procedure: as §1, §2, §3

[4] = tested on: Salmonella typhimurium TA100; assay: Reverse mutation assay (Ames test), TA100; details: for His + revertant colonies TA100 without S9-mix: mean ± SD of 3 plates; for Cytotoxicity at the test doses: TA100, absence of S9 mix; for Increase in the number of revertants compared to the concurrent solvent control: TA100, presence of 5% S9-mix, 10–100 µg; for Mutagenicity (conclusion): TA100, positive if more than twofold over control
Procedure: Six concentrations of each compound were tested in triplicate in the absence and presence of 5% (v/v) S9-mix prepared from the livers of Aroclor 1254 treated Sprague–Dawley rats. The S9-mix contained 4 mM NADP, 5.8 mM glucose-6-phosphate, 0.1 M sodium phosphate pH 7.4, 8 mM MgCl2, 33 mM KCl and 5% S9 homogenate. Fresh bacterial cultures were prepared overnight to reach 10^9 cells/ml. The following solutions were pre-incubated in a rotating incubator at 70 rpm and 37 °C, and contained either 0.5 ml S9-mix (in case of S9 presence) or 0.5 ml 0.1 M potassium phosphate pH 7.4 (in case of S9 absence), 0.1 ml of a fresh bacterial culture (10^9 cells/ml) of TA98 or TA100, and 10–100 µg test compound. Top agar was melted and heated to 45 °C. After preincubation, the substrate solutions were added to 3 ml of the molten top agar and mixed by vortexing and the top agar mixture was poured onto a minimal glucose agar plate. After solidification of the top agar, the plates were incubated at 37 °C for 48 h. The number of revertant colonies per plate was automatically counted with the Instem Sorcerer Colony Counter (Staffordshire, UK). In the absence of S9-mix, 2-nitrofluorene (NF) and methylmethanesulfonate (MMS) were tested as positive controls for incubations with TA98 and TA100, respectively. In the presence of S9-mix, 2-aminoanthracene (2AA) was tested as a positive control in both TA98 and TA100. DMSO was tested as a solvent control in both tester strains.

## Cc1cc2ccccc2c2ccccc12 [9-Methylphenanthrene]
Mouse skin
  Tumor-initiating activity: neither phenanthrene nor its monomethylated analogs
S. typhimurium TA98
  Increase in revertants: 1.3 fold
[1]
  Increase in the number of revertants compared to the concurrent solvent control: 2.5 fold
  Mutagenicity (conclusion): indicative of mutagenicity
[1]; TA98, presence of S9-mix
  Increase in the number of revertants relative to the historical control data: 3.2 fold
[2]; substrate 9-Methylphenanthrene
  Vmax, formation of 9-(Hydroxymethyl)-phenanthrene RT = 5.6 min: 1543 ± 226.6 pmol/min/mg microsomal protein
  Vmax, formation of 9-Methylphenanthrol RT = 6.73 min: 27.2 ± 5.1 pmol/min/mg microsomal protein
  Vmax, formation of 9-Methylphenanthrol RT = 6.87 min: 124.2 ± 29.2 pmol/min/mg microsomal protein
  Vmax, formation of 9-Methylphenanthrol RT = 7.2 min: 41.4 ± 23.4 pmol/min/mg microsomal protein
  Vmax, formation of 9-Methylphenanthrol RT = 7.25 min: 10.2 ± 1.9 pmol/min/mg microsomal protein
S. typhimurium TA100
  Increase in revertants: 3.0 fold
[3]; substrate 9-Methylphenanthrene
  Vmax, formation of 1,2-Dihydro-9-methylphenanthrene-diol RT = 4.27 min: 15.6 ± 2.4 pmol/min/mg microsomal protein
  Vmax, formation of 3,4-Dihydro-9-methylphenanthrene-diol RT = 2.98 min: 26.1 ± 3.0 pmol/min/mg microsomal protein
  Vmax, formation of 9-(Hydroxymethyl)-phenanthrene RT = 5.6 min: 415.9 ± 43.9 pmol/min/mg microsomal protein
  Vmax, formation of 9-Methylphenanthrol RT = 6.28 min: 27.8 ± 6.7 pmol/min/mg microsomal protein
  Vmax, formation of 9-Methylphenanthrol RT = 6.73 min: 44.9 ± 19.4 pmol/min/mg microsomal protein
[4]; 2 µg/plate
  His + revertant colonies TA100 without S9-mix: 121±7
[4]; 4 µg/plate
  His + revertant colonies TA100 without S9-mix: 109±3
[4]; 10 µg/plate
  His + revertant colonies TA100 without S9-mix: 105±11
[4]; 20 µg/plate
  His + revertant colonies TA100 without S9-mix: 97±20
[4]; 40 µg/plate
  His + revertant colonies TA100 without S9-mix: 59±40
[4]
  Cytotoxicity at the test doses: showed cytotoxicity
  Increase in the number of revertants compared to the concurrent solvent control: 1.9 fold
  Mutagenicity (conclusion): indicative of mutagenicity
[4]; TA100, presence of S9-mix
  Increase in the number of revertants relative to the historical control data: 2.0 fold

## Cc1ccc2c(ccc3ccccc32)c1 [2-Methylphenanthrene]
Mouse skin
  Tumor-initiating activity: neither phenanthrene nor its monomethylated analogs
[1]
  Increase in the number of revertants compared to the concurrent solvent control: 2.2 fold
  Mutagenicity (conclusion): non-mutagenic
[2]; substrate 2-Methylphenanthrene
  Vmax, formation of 2-(Hydroxymethyl)-phennathrene RT = 5.59 min: 2174 ± 115.3 pmol/min/mg microsomal protein
  Vmax, formation of 2-Methylphenanthrol RT = 6.98 min: 76.0 ± 3.1 pmol/min/mg microsomal protein
  Vmax, formation of 2-Methylphenanthrol RT = 7.08 min: 11.2 ± 0.9 pmol/min/mg microsomal protein
  Vmax, formation of Dihydro-2-methylphenanthrene-diol RT = 4.26 min: 23.1 ± 2.7 pmol/min/mg microsomal protein
  Vmax, formation of Dihydro-2-methylphenanthrene-diol RT = 4.42 min: 16.2 ± 2.5 pmol/min/mg microsomal protein
[2]; substrate 2-Methylphenanthrene, KM NA
  Vmax, formation of 2-Methylphenanthrol RT = 6.12 min: 90.7 ± 3.8 pmol/min/mg microsomal protein
[3]; substrate 2-Methylphenanthrene
  Vmax, formation of 2-(Hydroxymethyl)-phennathrene RT = 5.59 min: 562.0 ± 27.5 pmol/min/mg microsomal protein
  Vmax, formation of 2-Methylphenanthrol RT = 6.12 min: 16.3 ± 0.8 pmol/min/mg microsomal protein
  Vmax, formation of Dihydro-2-methylphenanthrene-diol RT = 3.09 min: 6.4 ± 0.5 pmol/min/mg microsomal protein
[4]; 10 µg/plate
  His + revertant colonies TA100 without S9-mix: 106±20
[4]; 20 µg/plate
  His + revertant colonies TA100 without S9-mix: 98±13
[4]; 40 µg/plate
  His + revertant colonies TA100 without S9-mix: 70±8
[4]
  Cytotoxicity at the test doses: showed cytotoxicity
  Increase in the number of revertants compared to the concurrent solvent control: no increased response was found
  Mutagenicity (conclusion): non-mutagenic

## Cc1ccc2ccc3ccccc3c2c1 [3-Methylphenanthrene]
Mouse skin
  Tumor-initiating activity: neither phenanthrene nor its monomethylated analogs
[1]; 2 µg/plate
  His + revertant colonies TA98 without S9-mix: 16±3
[1]; 4 µg/plate
  His + revertant colonies TA98 without S9-mix: 17±4
[1]; 10 µg/plate
  His + revertant colonies TA98 without S9-mix: 14±1
[1]; 20 µg/plate
  His + revertant colonies TA98 without S9-mix: 13±2
[1]; 40 µg/plate
  His + revertant colonies TA98 without S9-mix: 9±4
[1]; TA98, absence of S9 mix
  Cytotoxicity at the test doses: showed cytotoxicity
[1]
  Increase in the number of revertants compared to the concurrent solvent control: 2.2 fold
  Mutagenicity (conclusion): non-mutagenic
[1]; TA98 without S9-mix, 40 µg/plate
  Bacterial background lawn: S
[2]; substrate 3-Methylphenanthrene
  Vmax, formation of 3-(Hydroxymethyl)-phenanthrene RT = 5.62 min: 2593 ± 305 pmol/min/mg microsomal protein
  Vmax, formation of 3-Methylphennathrol RT = 6.98 min: 82.6 ± 53.8 pmol/min/mg microsomal protein
  Vmax, formation of Dihydro-3-methylphenanthrene-diol RT = 4.25 min: 92.3 ± 25.1 pmol/min/mg microsomal protein
  Vmax, formation of Dihydro-3-methylphenanthrene-diol RT = 4.42 min: 20.4 ± 1.7 pmol/min/mg microsomal protein
[3]; substrate 3-Methylphenanthrene
  Vmax, formation of 3-(Hydroxymethyl)-phenanthrene RT = 5.62 min: 583.8 ± 19.6 pmol/min/mg microsomal protein
  Vmax, formation of Dihydro-3-methylphenanthrene-diol RT = 4.25 min: 65.0 ± 4.1 pmol/min/mg microsomal protein
  Vmax, formation of Dihydro-3-methylphenanthrene-diol RT = 4.42 min: 12.8 ± 0.8 pmol/min/mg microsomal protein
[4]; 2 µg/plate
  His + revertant colonies TA100 without S9-mix: 112±14
[4]; 4 µg/plate
  His + revertant colonies TA100 without S9-mix: 112±9
[4]; 10 µg/plate
  His + revertant colonies TA100 without S9-mix: 119±11
[4]; 20 µg/plate
  His + revertant colonies TA100 without S9-mix: 83±34
[4]; 40 µg/plate
  His + revertant colonies TA100 without S9-mix: 75±4
[4]
  Cytotoxicity at the test doses: showed cytotoxicity
  Increase in the number of revertants compared to the concurrent solvent control: no increased response was found
  Mutagenicity (conclusion): non-mutagenic
